# From PMC3895407 (Journal of medicinal chemistry, 2013)
# Marks after values point to notes of the source that are not given here.
# Legend:
# [1] = tested on: cell viability (cellular reduction of MTT)
# [2] = tested on: WEEV replicon; type: cell-based, western equine encephalitis virus
# [3] = tested on: Fort Morgan virus (FMV); settings: 25 µM
# [4] = tested on: Fort Morgan virus (FMV); type: cell-based
# [5] = in vitro; settings: PAMPA, pH 7.4
# [6] = in vitro
# [7] = Table 3; BBB lipid mixture, pH 7.4
# [8] = relative to lead compound 3
# [9] = tested on: western equine encephalitis virus (WEEV); settings: 25 µM
# [10] = tested on: western equine encephalitis virus (WEEV); settings: cited from earlier work
Compound,Papp [5],CC50 [6],other results
1-(1-(4-Chlorobenzyl)-1H-indole-2-carbonyl)-N-(2-methyl-2-(pyridin-4-yl)propyl)piperidine-4-carboxamide [27l],,,CC50 [1]: 43.6 µM; IC50 ([2]; read-out: IC50 (inhibition of luciferase expression in WEEV replicon assay)): 19.3 ± 21 µM
"CC(NC(=O)C1CCN(C(=O)c2cc3ccccc3n2Cc2ccc(Cl)cc2)CC1)c1ccncc1 (stereo not drawn) [27a, 1-(1-(4-Chlorobenzyl)-1H-indole-2-carbonyl)-N-(1-(pyridin-4-yl)ethyl)piperidine-4-carboxamide]",102 ×10⁻⁶ cm/s,,FMV Viability (% uninfected control) [3]: 68.2 ± 2.4 % uninfected control; Reduction of viral titers compared with 3 [4]: approximately ten-fold more than 3; Fold improvement of activity in WEEV replicon assay [2]: about 3 fold
"C[C@@H](NC(=O)C1CCN(C(=O)c2cc3ccccc3n2Cc2ccc(Cl)cc2)CC1)c1ccncc1 [27b, (R)-1-(1-(4-Chlorobenzyl)-1H-indole-2-carbonyl)-N-(1-(pyridin-4-yl)ethyl)piperidine-4-carboxamide]",95.5 ×10⁻⁶ cm/s,,
"CN1CCC(CNC(=O)C2CCN(C(=O)c3cc4ccccc4n3Cc3ccc(Cl)cc3)CC2)CC1 [27d, 1-(1-(4-Chlorobenzyl)-1H-indole-2-carbonyl)-N-((1-methylpiperidin-4-yl)methyl)piperidine-4-carboxamide]",,> 50 µM,
"Cn1ccc(CNC(=O)C2CCN(C(=O)c3cc4ccccc4n3Cc3ccc(Cl)cc3)CC2)n1 [27e, 1-(1-(4-Chlorobenzyl)-1H-indole-2-carbonyl)-N-((1-methyl-1H-pyrazol-3-yl)methyl)piperidine-4-carboxamide]",,> 100 µM,
"Cn1cnc(CNC(=O)C2CCN(C(=O)c3cc4ccccc4n3Cc3ccc(Cl)cc3)CC2)c1 [27f, 1-(1-(4-Chlorobenzyl)-1H-indole-2-carbonyl)-N-((1-methyl-1H-imidazol-4-yl)methyl)piperidine-4-carboxamide]",,> 50 µM,
"O=C(NCCc1ccncc1)C1CCN(C(=O)c2cc3ccccc3n2Cc2ccc(Cl)cc2)CC1 [27g, 1-(1-(4-Chlorobenzyl)-1H-indole-2-carbonyl)-N-(2-(pyridin-4-yl)ethyl)piperidine-4-carboxamide]",66.1 ×10⁻⁶ cm/s,,BBB-PAMPA (log Peff) [7]: -4.18 ± 0.06 cm/s; FMV Viability (% uninfected control) [3]: 71.9 ± 1.9 % uninfected control; Reduction of viral titers compared with 3 [4]: approximately ten-fold more than 3; Fold increase in potency in WEEV replicon assay [2]: 10 fold
"O=C(NCCCc1ccncc1)C1CCN(C(=O)c2cc3ccccc3n2Cc2ccc(Cl)cc2)CC1 [27j, 1-(1-(4-Chlorobenzyl)-1H-indole-2-carbonyl)-N-(3-(pyridin-4-yl)propyl)piperidine-4-carboxamide]",77.6 ×10⁻⁶ cm/s,,Fold decrease in potency in WEEV replicon assay [2]: 5 fold
"CN(CCc1ccncc1)C(=O)C1CCN(C(=O)c2cc3ccccc3n2Cc2ccc(Cl)cc2)CC1 [27m, 1-(1-(4-Chlorobenzyl)-1H-indole-2-carbonyl)-N-methyl-N-(2-(pyridin-4-yl)ethyl)piperidine-4-carboxamide]",61.7 ×10⁻⁶ cm/s,,Fold diminished potency in WEEV replicon assay [2]: 3 fold
"O=C(NCCn1ccnc1)C1CCN(C(=O)c2cc3ccccc3n2Cc2ccc(Cl)cc2)CC1 [27o, N-(2-(1H-Imidazol-1-yl)ethyl)-1-(1-(4-chlorobenzyl)-1H-indole-2-carbonyl)piperidine-4-carboxamide]",1.74 ×10⁻⁶ cm/s,,
"COc1cccc(CCNC(=O)C2CCN(C(=O)c3cc4ccccc4n3Cc3ccc(Cl)cc3)CC2)c1 [27p, 1-(1-(4-Chlorobenzyl)-1H-indole-2-carbonyl)-N-(3-methoxyphenethyl)piperidine-4-carboxamide]",,> 100 µM,
"CN(C)C(=O)C1CCN(C(=O)c2cc3ccccc3n2Cc2ccc(Cl)cc2)CC1 [27v, 1-(1-(4-Chlorobenzyl)-1H-indole-2-carbonyl)-N,N-dimethylpiperidine-4-carboxamide]",64.6 ×10⁻⁶ cm/s,> 100 µM,
"O=C(c1cc2ccccc2n1Cc1ccc(Cl)cc1)N1CCC(C(=O)N2CCOCC2)CC1 [27x, (1-(4-Chlorobenzyl)-1H-indol-2-yl)(4-(morpholine-4-carbonyl)piperidin-1-yl)methanone]",,> 100 µM,
"CN(Cc1ccccc1)C(=O)C1CCN(C(=O)c2cc3ccccc3n2Cc2ccc([N+](=O)[O-])cc2)CC1 [28b, N-Benzyl-N-methyl-1-(1-(4-nitrobenzyl)-1H-indole-2-carbonyl)piperidine-4-carboxamide]",,> 100 µM,
"CN(Cc1ccccc1)C(=O)C1CCN(C(=O)c2cc3ccccc3n2Cc2ccc(C#N)cc2)CC1 [28c, N-Benzyl-1-(1-(4-cyanobenzyl)-1H-indole-2-carbonyl)-N-methylpiperidine-4-carboxamide]",53.7 ×10⁻⁶ cm/s,> 100 µM,
"CC(=O)n1c(C(=O)N2CCC(C(=O)N(C)Cc3ccccc3)CC2)cc2ccccc21 [28e, 1-(1-Acetyl-1H-indole-2-carbonyl)-N-benzyl-N-methylpiperidine-4-carboxamide]",9.77 ×10⁻⁶ cm/s,> 50 µM,

Compound,Papp [5],CC50 [6],other results
"COCCn1c(C(=O)N2CCC(C(=O)N(C)Cc3ccccc3)CC2)cc2ccccc21 [28f, N-Benzyl-1-(1-(2-methoxyethyl)-1H-indole-2-carbonyl)-N-methylpiperidine-4-carboxamide]",40.7 ×10⁻⁶ cm/s,> 50 µM,
"O=C(NCCc1ccncc1)C1CCN(C(=O)c2cccn2Cc2ccc(Cl)cc2)CC1 [29a, 1-(1-(4-Chlorobenzyl)-1H-pyrrole-2-carbonyl)-N-(2-(pyridin-4-yl)ethyl)piperidine-4-carboxamide]",9.77 ×10⁻⁶ cm/s,> 100 µM,FMV Viability (% uninfected control) [3]: 63.0 ± 5.9 % uninfected control
"O=C(NCCc1ccncc1)C1CCN(C(=O)c2nccn2Cc2ccc(Cl)cc2)CC1 [29b, 1-(1-(4-Chlorobenzyl)-1H-imidazole-2-carbonyl)-N-(2-(pyridin-4-yl)ethyl)piperidine-4-carboxamide]",8.71 ×10⁻⁶ cm/s,> 50 µM,
"O=C(NCCc1ccncc1)C1CCN(C(=O)c2nc3ccccc3n2Cc2ccc(Cl)cc2)CC1 [29c, 1-(1-(4-Chlorobenzyl)-1H-benzo[d]imidazole-2-carbonyl)-N-(2-(pyridin-4-yl)ethyl)piperidine-4-carboxamide]",31.6 ×10⁻⁶ cm/s,,Fold increase in half-life in mouse liver microsomes [8]: 20-35 fold
"O=C(NCCc1ccncc1)C1CCN(C(=O)NCCc2ccc(Cl)cc2)CC1 [29d, N1-(4-Chlorophenethyl)-N4-(2-(pyridin-4-yl)ethyl)piperidine-1,4-dicarboxamide]",14.1 ×10⁻⁶ cm/s,> 100 µM,
"Cn1c(C(=O)N2CCC(C(=O)NCCc3ccncc3)CC2)cc2ccccc21 [29e, 1-(1-Methyl-1H-indole-2-carbonyl)-N-(2-(pyridin-4-yl)ethyl)piperidine-4-carboxamide]",,> 50 µM,
"O=C(NCCc1ccncc1)C1CCN(C(=O)c2cc3ccccc3n2Cc2ccccc2)CC1 [29f, 1-(1-Benzyl-1H-indole-2-carbonyl)-N-(2-(pyridin-4-yl)ethyl)piperidine-4-carboxamide]",,,Fold increase in half-life in mouse liver microsomes [8]: 20-35 fold
"O=C(NCCc1ccncc1)C1CCN(C(=O)c2cc3ccc(F)cc3n2Cc2ccc(Cl)cc2)CC1 [29h, 1-(1-(4-Chlorobenzyl)-6-fluoro-1H-indole-2-carbonyl)-N-(2-(pyridin-4-yl)ethyl)piperidine-4-carboxamide]",,,Reduction of viral titers compared with 3 [4]: approximately ten-fold more than 3
"O=C(NCCc1ccncc1)C1CCN(C(=O)c2cc3cc(F)ccc3n2Cc2ccc(Cl)cc2)CC1 [29i, 1-(1-(4-Chlorobenzyl)-5-fluoro-1H-indole-2-carbonyl)-N-(2-(pyridin-4-yl)ethyl)piperidine-4-carboxamide]",77.6 ×10⁻⁶ cm/s,,
"O=C(NCCc1ccncc1)C1CCN(C(=O)c2cc3ccncc3n2Cc2ccc(Cl)cc2)CC1 [29j, 1-(1-(4-Chlorobenzyl)-1H-pyrrolo[2,3-c]pyridine-2-carbonyl)-N-(2-(pyridin-4-yl)ethyl)piperidine-4-carboxamide]",3.02 ×10⁻⁶ cm/s,,
"O=C(NCCc1ccncc1)C1CCN(C(=O)c2cc(F)cn2Cc2ccc(Cl)cc2)CC1 [29k, 1-(1-(4-Chlorobenzyl)-4-fluoro-1H-pyrrole-2-carbonyl)-N-(2-(pyridin-4-yl)ethyl)piperidine-4-carboxamide]",12.6 ×10⁻⁶ cm/s,,
NC(=O)c1ncn([C@@H]2O[C@H](CO)[C@@H](O)[C@H]2O)n1 [Ribavirin],,,WEEV Viability (% uninfected control) [9]: 35.3 ± 1.0 % uninfected control
C[C@@H](NC(=O)C1CCN(C(=O)c2cc3ccccc3n2Cc2ccc(Cl)cc2)CC1)c1ccccc1 [compound 3],0.302 ×10⁻⁶ cm/s,> 100 µM,WEEV Titer [10]: 8.8 ± 1.0* x10^6 pfu/mL; FMV Viability (% uninfected control) [3]: 47.4 ± 8.0 % uninfected control
O=C(NCc1ccncc1)C1CCN(C(=O)c2cc3ccccc3n2Cc2ccc(Cl)cc2)CC1 [compound 4],69.2 ×10⁻⁶ cm/s,> 100 µM,
O=C(NCc1cccnc1)C1CCN(C(=O)c2cc3ccccc3n2Cc2ccc(Cl)cc2)CC1 [compound 5],,,Fold loss in activity in WEEV replicon assay [2]: 2 fold
